Measurements as given in ChEMBL document CHEMBL1201862, “PubChem BioAssay data set” (2004).
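Cultured in 96-well plates, cells were exposed to test compound for 48 hours across five concentrations. GI50: concentration for 50% inhibition of growth.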 Activity calls are given as the source filed them. Rule as the data show it: active = GI50 up to about 1.1 µM and inactive = higher.

Key:
Experiment in all cases: DTP human tumour cell line panel, 48 h
[1] = test system: MOLT-4
[2] = test system: NCI/ADR-RES
[3] = test system: TK-10
[4] = test system: UACC-257
[5] = test system: LOX IMVI
[6] = test system: EKVX
[7] = test system: BT-549
[8] = test system: SNB-19
[9] = test system: DU-145
[10] = test system: SR
[11] = test system: ACHN
[12] = test system: HCT-15
[13] = test system: Hs-578T
[14] = test system: HCT-116
[15] = test system: OVCAR-4
[16] = test system: KM12
[17] = test system: UACC-62
[18] = test system: COLO 205
[19] = test system: CCRF-CEM

Compound	GI50 [1]	GI50 [2]	GI50 [3]	GI50 [4]	GI50 [5]	GI50 [6]	GI50 [7]	GI50 [8]	GI50 [9]	GI50 [10]	GI50 [11]	GI50 [12]	GI50 [13]	GI50 [14]	GI50 [15]	GI50 [16]	GI50 [17]	GI50 [18]	GI50 [19]
CN(C)CCNc1ccccn1	> 100 µM (inactive)	> 100 µM (inactive)	> 100 µM (inactive)	> 100 µM (inactive)	> 100 µM (inactive)	> 100 µM (inactive)	> 100 µM (inactive)	> 100 µM (inactive)	> 100 µM (inactive)	> 100 µM (inactive)	> 100 µM (inactive)	> 100 µM	> 100 µM (inactive)	> 100 µM (inactive)	> 100 µM (inactive)	> 100 µM (inactive)	> 100 µM (inactive)		
COc1cccc(NC(=O)CC(=O)NN)c1	> 100 µM (inactive)	> 100 µM (inactive)	> 100 µM (inactive)	> 100 µM (inactive)	> 100 µM (inactive)	> 100 µM (inactive)	> 100 µM (inactive)	> 100 µM (inactive)	> 100 µM (inactive)	> 100 µM (inactive)	> 100 µM (inactive)	> 100 µM	> 100 µM (inactive)	> 100 µM (inactive)	> 100 µM (inactive)	> 100 µM (inactive)	> 100 µM (inactive)	> 100 µM (inactive)	> 100 µM (inactive)
CN(C)c1ccc(/C=C2\C[C@H]3[C@@H]4CC=C5C[C@@H](O)CC[C@]5(C)[C@H]4CC[C@]3(C)[C@H]2O)cc1	32 µM (inactive)	18.4 µM (inactive)	18.5 µM (inactive)	18.2 µM (inactive)	8.51 µM (inactive)	4.81 µM (inactive)	21 µM (inactive)	15.7 µM (inactive)	34.1 µM (inactive)	21 µM (inactive)	16 µM (inactive)	15.7 µM	23.4 µM (inactive)	6.59 µM (inactive)	35.6 µM (inactive)	36 µM (inactive)	13.7 µM (inactive)	11 µM (inactive)	
COc1ccc(Nc2nc(N)c(C(=O)c3ccccc3)s2)cc1	< 0.0238 µM (active)	< 0.01 µM (active)	23.8 µM (inactive)	29.5 µM (inactive)	0.0524 µM (active)	0.142 µM (active)	1.33 µM (inactive)	0.037 µM (active)	0.178 µM (active)	< 0.01 µM (active)	7.67 µM (inactive)	0.0471 µM	0.0826 µM (active)	0.0267 µM (active)	2.44 µM (inactive)	0.143 µM (active)	0.05 µM (active)	0.0398 µM (active)	0.0226 µM (active)
CC(=O)NC1C(OCc2ccccc2)OC(CO)C(O)C1OC(C)C(=O)NC(C)C(=O)NC(CCC(=O)NCCCCNc1c2ccccc2nc2cccc([N+](=O)[O-])c12)C(N)=O (configuration not stated)	0.148 µM (active)	0.123 µM (active)	0.0202 µM (active)	0.121 µM (active)	0.216 µM (active)	0.0625 µM (active)	0.196 µM (active)	0.021 µM (active)	0.00887 µM (active)	0.00796 µM (active)	0.0119 µM (active)	0.00893 µM	0.171 µM (active)	0.00748 µM (active)	0.242 µM (active)	0.0482 µM (active)	0.0286 µM (active)	0.0327 µM (active)	0.114 µM (active)
O=c1cc(/C=C/c2ccc(O)c(O)c2)oc(/C=C/c2ccc(O)c(O)c2)c1	1.83 µM (inactive)	26.1 µM (inactive)	7.33 µM (inactive)	5.31 µM (inactive)	3.61 µM (inactive)	6.53 µM (inactive)	4.8 µM (inactive)	3.82 µM (inactive)	4.55 µM (inactive)	1.07 µM (active)	4.84 µM (inactive)	5.68 µM	4.09 µM (inactive)	4.53 µM (inactive)	3.78 µM (inactive)	4.37 µM (inactive)	2.37 µM (inactive)	8.2 µM (inactive)	1.24 µM (inactive)
C=C(C)[C@H]1C=C[C@@H](OC(=O)c2cccnc2)[C@@]23CO[C@@](C)([C@H](OC(=O)c4cccnc4)[C@@]4(OC(C)=O)C[C@H](C)[C@H](OCCC)[C@@H]4[C@H]2OC(C)=O)[C@H]13	7.1 µM (inactive)	> 15 µM (inactive)	> 15 µM (inactive)	> 15 µM (inactive)	> 15 µM (inactive)	> 15 µM (inactive)	> 15 µM (inactive)	> 15 µM (inactive)	> 15 µM (inactive)	11.9 µM (inactive)	> 15 µM (inactive)	> 15 µM	13.5 µM (inactive)	> 15 µM (inactive)	10.3 µM (inactive)	> 15 µM (inactive)	> 15 µM (inactive)	8.09 µM (inactive)	2.84 µM (inactive)
Clc1cccc(/C=N/C23CC4CC(CC(C4)C2)C3)c1Cl		> 10 µM (inactive)	> 10 µM (inactive)	> 10 µM (inactive)	> 10 µM (inactive)	> 10 µM (inactive)	> 10 µM (inactive)	> 10 µM (inactive)	> 10 µM (inactive)	0.637 µM (active)	> 10 µM (inactive)	> 10 µM	> 10 µM (inactive)	6.35 µM (inactive)	> 10 µM (inactive)	> 10 µM (inactive)	> 10 µM (inactive)	> 10 µM (inactive)	> 10 µM (inactive)
C=CC(C)(C)n1cc(C2=C(O)C(=O)C(c3cn(C(C)(C)C=C)c4ccccc34)=C(OC(C)=O)C2=O)c2ccccc21	0.475 µM (active)	1.64 µM (inactive)		0.64 µM (active)	0.508 µM (active)	1.11 µM (active)	0.494 µM (active)	1.04 µM (active)	1.04 µM (active)	0.298 µM (active)	1.27 µM (inactive)	0.375 µM	0.646 µM (active)	0.429 µM (active)	1.32 µM (inactive)	0.565 µM (active)	0.571 µM (active)	1.67 µM (inactive)	0.435 µM (active)
CC(=O)OCC1OC(SC2=NC(=O)/C(=C/c3ccccc3)S2)C(OC(C)=O)C(OC(C)=O)C1OC(C)=O (configuration not stated)	21.8 µM (inactive)	30.4 µM (inactive)		34.2 µM (inactive)	22.4 µM (inactive)	21.2 µM (inactive)	28.4 µM (inactive)	35.1 µM (inactive)	95.1 µM (inactive)	10.9 µM (inactive)	48.2 µM (inactive)	59 µM	23.3 µM (inactive)	29.4 µM (inactive)	32 µM (inactive)	36.9 µM (inactive)	21.1 µM (inactive)	45.6 µM (inactive)	28.4 µM (inactive)
Cn1c(=O)c2c(ncn2CCCCOc2ccc3c(c2)[n+]([O-])nc(N)[n+]3[O-])n(C)c1=O	25.4 µM (inactive)	> 100 µM (inactive)	51.6 µM (inactive)	23.9 µM (inactive)	30.7 µM (inactive)	28.7 µM (inactive)	12.9 µM (inactive)	31.1 µM (inactive)	44.2 µM (inactive)	49.2 µM (inactive)		65.2 µM	22.9 µM (inactive)	28.1 µM (inactive)	41.8 µM (inactive)	32.6 µM (inactive)	17.1 µM (inactive)	17 µM (inactive)	32.7 µM (inactive)
